Laboratory results published in ChEMBL document CHEMBL2440050 (ACS Med Chem Lett, 2013).

Experiments:
[1] = tested on: L1210; experiment: Growth inhibition of mouse L1210 cells after 72 hrs by phosphatase assay; format: functional, cell-based; details: L1210, 72 h
[2] = tested on: HCT-116/VM46; experiment: Growth inhibition of vinblastine-resistant human HCT116/VM46 cells overexpressing P-gp after 72 hrs by MTS assay; format: functional, cell-based; details: HCT-116/VM46, 72 h
[3] = Growth inhibition of human SW403 cells after 72 hrs by MTS assay; format: functional, cell-based; details: SW-403, 72 h
[4] = tested on: HCC70; experiment: Ratio of vinblastine IC50 to compound IC50 for human HCC70 cells by MTS assay; format: functional
[5] = tested on: HCT-116; experiment: Ratio of vinblastine IC50 to compound IC50 for vinblastine-sensitive human HCT116 cells by MTS assay; format: functional
[6] = Ratio of vinblastine IC50 to compound IC50 for human KPL4 cells by MTS assay; format: functional
[7] = tested on: LS174T; experiment: Ratio of vinblastine IC50 to compound IC50 for human LS 174T cells by MTS assay; format: functional
[8] = tested on: AU565; experiment: Ratio of vinblastine IC50 to compound IC50 for human AU565 cells by MTS assay; format: functional
[9] = tested on: ZR-75-1; experiment: Ratio of vinblastine IC50 to compound IC50 for human ZR-75-1 cells by MTS assay; format: functional
[10] = tested on: HCC70; experiment: Growth inhibition of human HCC70 cells after 72 hrs by MTS assay; format: functional, cell-based; details: HCC70, 72 h
[11] = tested on: HCT-116; experiment: Growth inhibition of vinblastine-sensitive human HCT116 cells after 72 hrs by MTS assay; format: functional, cell-based; details: HCT-116, 72 h
[12] = Growth inhibition of human KPL4 cells after 72 hrs by MTS assay; format: functional, cell-based; details: KPL4, 72 h
[13] = tested on: HCT-116/VM46; experiment: Ratio of vinblastine IC50 to compound IC50 for vinblastine-resistant human HCT116/VM46 cells overexpressing P-gp by MTS assay; format: functional
[14] = tested on: PA-1; experiment: Growth inhibition of human PA1 cells after 72 hrs by MTS assay; format: functional, cell-based; details: PA-1, 72 h
[15] = Ratio of vinblastine IC50 to compound IC50 for human SW403 cells by MTS assay; format: functional
[16] = tested on: T47D; experiment: Ratio of vinblastine IC50 to compound IC50 for human T47D cells by MTS assay; format: functional
[17] = tested on: MCF7; experiment: Growth inhibition of human MCF7 cells after 72 hrs by MTS assay; format: functional, cell-based; details: MCF7, 72 h
[18] = tested on: PA-1; experiment: Ratio of vinblastine IC50 to compound IC50 for human PA1 cells by MTS assay; format: functional
[19] = tested on: HCT-116; experiment: Growth inhibition of vinblastine-sensitive human HCT116 cells after 72 hrs by phosphatase assay; format: functional, cell-based; details: HCT-116, 72 h
[20] = tested on: ZR-75-1; experiment: Growth inhibition of human ZR-75-1 cells after 72 hrs by MTS assay; format: functional, cell-based; details: ZR-75-1, 72 h
[21] = tested on: HCT-116/VM46; experiment: Ratio of vinblastine IC50 to compound IC50 for vinblastine-resistant human HCT116/VM46 cells overexpressing P-gp by phosphatase assay; format: functional
[22] = tested on: T47D; experiment: Growth inhibition of human T47D cells after 72 hrs by MTS assay; format: functional, cell-based
[23] = tested on: HCT-116; experiment: Ratio of IC50 for vinblastine-resistant human HCT116/VM46 cells overexpressing P-gp to IC50 for vinblastine-sensitive human HCT116 cells by phosphatase assay; format: functional
[24] = Ratio of vinblastine IC50 to compound IC50 for human LNCaP-FGC cells by MTS assay; format: functional
[25] = tested on: HCC1143; experiment: Growth inhibition of human HCC1143 cells after 72 hrs by MTS assay; format: functional, cell-based; details: HCC1143, 72 h
[26] = tested on: MDA-MB-468; experiment: Ratio of vinblastine IC50 to compound IC50 for human MDA-MB-468 cells by MTS assay; format: functional
[27] = tested on: AU565; experiment: Growth inhibition of human AU565 cells after 72 hrs by MTS assay; format: functional, cell-based; details: AU565, 72 h
[28] = tested on: HCT-116; experiment: Ratio of vinblastine IC50 to compound IC50 for vinblastine-sensitive human HCT116 cells by phosphatase assay; format: functional
[29] = tested on: HCC1143; experiment: Ratio of vinblastine IC50 to compound IC50 for human HCC1143 cells by MTS assay; format: functional
[30] = Growth inhibition of human LNCaP-FGC cells after 72 hrs by MTS assay; format: functional, cell-based; details: LNCaP-Clone-FGC
[31] = tested on: NCI-H520; experiment: Ratio of vinblastine IC50 to compound IC50 for human NCI-H520 cells by MTS assay; format: functional
[32] = Growth inhibition of human LS 174T cells after 72 hrs by MTS assay; format: functional, cell-based; details: LS174T
[33] = tested on: NCI-H520; experiment: Growth inhibition of human NCI-H520 cells after 72 hrs by MTS assay; format: functional, cell-based; details: NCI-H520, 72 h
[34] = tested on: MDA-MB-468; experiment: Growth inhibition of human MDA-MB-468 cells after 72 hrs by MTS assay; format: functional, cell-based; details: MDA-MB-468, 72 h
[35] = tested on: L1210; experiment: Ratio of vinblastine IC50 to compound IC50 for mouse L1210 cells by phosphatase assay; format: functional
[36] = tested on: HCT-116/VM46; experiment: Growth inhibition of vinblastine-resistant human HCT116/VM46 cells overexpressing P-gp after 72 hrs by phosphatase assay; format: functional, cell-based; details: HCT-116/VM46, 72 h
[37] = target: Tubulin (Sus scrofa) (UniProt P02554+P02550); experiment: Displacement of [3H]-VBL from porcine tubulin after 60 mins relative to control; format: protein assay
[38] = tested on: HCT-116; experiment: Ratio of IC50 for vinblastine-resistant human HCT116/VM46 cells overexpressing P-gp to IC50 for vinblastine-sensitive human HCT116 cells by MTS assay; format: functional

Chain of Tubulin (Sus scrofa) (P02550 whole entry, looked up): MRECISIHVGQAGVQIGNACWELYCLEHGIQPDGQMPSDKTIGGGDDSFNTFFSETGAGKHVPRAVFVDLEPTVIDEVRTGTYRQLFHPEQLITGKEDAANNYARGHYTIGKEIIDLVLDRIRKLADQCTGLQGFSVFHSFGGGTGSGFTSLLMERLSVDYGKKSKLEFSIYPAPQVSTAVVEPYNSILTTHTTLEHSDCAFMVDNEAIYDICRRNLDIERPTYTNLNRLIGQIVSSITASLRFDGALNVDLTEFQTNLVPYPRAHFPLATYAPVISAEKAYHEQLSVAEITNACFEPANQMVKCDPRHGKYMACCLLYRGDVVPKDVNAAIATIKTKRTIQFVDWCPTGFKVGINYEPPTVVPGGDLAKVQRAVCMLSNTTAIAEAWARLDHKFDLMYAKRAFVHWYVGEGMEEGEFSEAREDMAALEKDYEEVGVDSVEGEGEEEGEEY
Chain of Tubulin (Sus scrofa) (P02554 whole entry, looked up): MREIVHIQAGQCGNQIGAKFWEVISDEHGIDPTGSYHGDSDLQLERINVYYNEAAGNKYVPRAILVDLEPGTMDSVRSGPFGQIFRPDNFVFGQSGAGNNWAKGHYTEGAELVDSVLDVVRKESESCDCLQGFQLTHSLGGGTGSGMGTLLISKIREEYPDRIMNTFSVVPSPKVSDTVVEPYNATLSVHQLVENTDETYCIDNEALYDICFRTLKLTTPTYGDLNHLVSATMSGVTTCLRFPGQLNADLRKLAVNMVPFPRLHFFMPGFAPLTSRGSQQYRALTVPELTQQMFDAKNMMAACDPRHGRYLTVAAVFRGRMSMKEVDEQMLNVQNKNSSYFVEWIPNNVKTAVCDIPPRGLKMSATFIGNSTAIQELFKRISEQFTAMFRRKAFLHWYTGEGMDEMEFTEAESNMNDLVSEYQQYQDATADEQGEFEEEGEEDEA

Compound	IC50 [1]	IC50 [2]	IC50 [3]	IC50 [10]	IC50 [12]	IC50 [14]	IC50 [17]	IC50 [19]	IC50 [20]	Ratio IC50 [21]	IC50 [22]	Ratio IC50 [23]	IC50 [25]	IC50 [27]	Ratio IC50 [28]	IC50 [30]	IC50 [32]	IC50 [33]	IC50 [34]	IC50 [36]	also measured
CC[C@]1(NC(=O)N2CCOCC2)C[C@H]2CN(CCc3c([nH]c4ccccc34)[C@@](C(=O)OC)(c3cc4c(cc3OC)N(C)[C@H]3[C@@](O)(C(=O)OC)[C@H](OC(C)=O)[C@]5(CC)C=CCN6CC[C@]43[C@@H]65)C2)C1	5.3 nM																				
CC[C@]1(NC(=O)N2CCc3ccccc3C2)C[C@H]2CN(CCc3c([nH]c4ccccc34)[C@@](C(=O)OC)(c3cc4c(cc3OC)N(C)[C@H]3[C@@](O)(C(=O)OC)[C@H](OC(C)=O)[C@]5(CC)C=CCN6CC[C@]43[C@@H]65)C2)C1	0.62 nM	6.6 nM	1.2 nM	0.13 nM	0.06 nM	0.19 nM	2.1 nM	0.56 nM	0.52 nM	80	0.55 nM	13	0.16 nM	0.13 nM	10	0.02 nM	0.3 nM	0.14 nM	0.12 nM	8.7 nM	Ratio IC50 [4]: 10; Ratio IC50 [5]: 10; Ratio IC50 [6]: 10; Ratio IC50 [7]: 10; Ratio IC50 [8]: 10; Ratio IC50 [9]: 10; IC50 [11]: 0.26 nM; Ratio IC50 [13]: 10; Ratio IC50 [15]: 10; Ratio IC50 [16]: 10; Ratio IC50 [18]: 10; Ratio IC50 [24]: 10; Ratio IC50 [26]: 10; Ratio IC50 [29]: 10; Ratio IC50 [31]: 10; Ratio IC50 [35]: 10
CC[C@]1(NC(=O)N2CCSCC2)C[C@H]2CN(CCc3c([nH]c4ccccc34)[C@@](C(=O)OC)(c3cc4c(cc3OC)N(C)[C@H]3[C@@](O)(C(=O)OC)[C@H](OC(C)=O)[C@]5(CC)C=CCN6CC[C@]43[C@@H]65)C2)C1	2.1 nM							0.88 nM												50 nM	
CC[C@]1(NC(=O)NC)C[C@H]2CN(CCc3c([nH]c4ccccc34)[C@@](C(=O)OC)(c3cc4c(cc3OC)N(C)[C@H]3[C@@](O)(C(=O)OC)[C@H](OC(C)=O)[C@]5(CC)C=CCN6CC[C@]43[C@@H]65)C2)C1	5.9 nM																				
CC[C@]1(NC(=O)N2CCCC2)C[C@H]2CN(CCc3c([nH]c4ccccc34)[C@@](C(=O)OC)(c3cc4c(cc3OC)N(C)[C@H]3[C@@](O)(C(=O)OC)[C@H](OC(C)=O)[C@]5(CC)C=CCN6CC[C@]43[C@@H]65)C2)C1	0.7 nM							0.72 nM												50 nM	
CC[C@]1(NC(N)=O)C[C@H]2CN(CCc3c([nH]c4ccccc34)[C@@](C(=O)OC)(c3cc4c(cc3OC)N(C)[C@H]3[C@@](O)(C(=O)OC)[C@H](OC(C)=O)[C@]5(CC)C=CCN6CC[C@]43[C@@H]65)C2)C1	40 nM																				
CC[C@]1(NC(=O)N2CC=CCC2)C[C@H]2CN(CCc3c([nH]c4ccccc34)[C@@](C(=O)OC)(c3cc4c(cc3OC)N(C)[C@H]3[C@@](O)(C(=O)OC)[C@H](OC(C)=O)[C@]5(CC)C=CCN6CC[C@]43[C@@H]65)C2)C1	0.52 nM	6.4 nM	0.5 nM	0.21 nM	0.06 nM	0.11 nM	> 12.5 nM	0.52 nM	0.71 nM	80	0.51 nM	13	0.13 nM	0.15 nM	10	0.45 nM	0.46 nM	0.17 nM	0.4 nM	8.4 nM	Ratio IC50 [4]: 10; Ratio IC50 [5]: 10; Ratio IC50 [6]: 10; Ratio IC50 [7]: 10; Ratio IC50 [8]: 10; Ratio IC50 [9]: 10; IC50 [11]: 0.22 nM; Ratio IC50 [13]: 10; Ratio IC50 [15]: 10; Ratio IC50 [16]: 10; Ratio IC50 [18]: 10; Ratio IC50 [24]: 10; Ratio IC50 [26]: 10; Ratio IC50 [29]: 10; Ratio IC50 [31]: 10; Ratio IC50 [35]: 10
CC[C@]1(NC(=O)N2CCN(C)CC2)C[C@H]2CN(CCc3c([nH]c4ccccc34)[C@@](C(=O)OC)(c3cc4c(cc3OC)N(C)[C@H]3[C@@](O)(C(=O)OC)[C@H](OC(C)=O)[C@]5(CC)C=CCN6CC[C@]43[C@@H]65)C2)C1	7.7 nM							3.4 nM												710 nM	
CC[C@]1(O)C[C@@H]2CN(CCc3c([nH]c4ccccc34)[C@@](C(=O)OC)(c3cc4c(cc3OC)N(C)[C@H]3[C@@](O)(C(=O)OC)[C@H](OC(C)=O)[C@]5(CC)C=CCN6CC[C@]43[C@@H]65)C2)C1 [VINBLASTINE]		> 110 nM	7.9 nM	3.5 nM	2.9 nM	4.6 nM	> 110 nM		8 nM		5 nM		3.8 nM	4 nM		5.1 nM	19.6 nM	4.5 nM	4.6 nM		Activity [37]: 50%
CC[C@]1(NC(=O)N2Cc3ccc(OC)cc3C2)C[C@H]2CN(CCc3c([nH]c4ccccc34)[C@@](C(=O)OC)(c3cc4c(cc3OC)N(C)[C@H]3[C@@](O)(C(=O)OC)[C@H](OC(C)=O)[C@]5(CC)C=CCN6CC[C@]43[C@@H]65)C2)C1	0.61 nM							0.69 nM		80		13			10					8.7 nM	Ratio IC50 [35]: 10
CC[C@]1(NC(=O)N2Cc3ccccc3C2)C[C@H]2CN(CCc3c([nH]c4ccccc34)[C@@](C(=O)OC)(c3cc4c(cc3OC)N(C)[C@H]3[C@@](O)(C(=O)OC)[C@H](OC(C)=O)[C@]5(CC)C=CCN6CC[C@]43[C@@H]65)C2)C1	0.51 nM	3.5 nM	0.45 nM	0.04 nM	0.04 nM	0.11 nM	> 12.5 nM	0.6 nM	0.45 nM	80	0.41 nM	13	0.09 nM	0.11 nM	10	0.24 nM	0.45 nM	0.1 nM	0.39 nM	7.5 nM	Ratio IC50 [38]: 20; Ratio IC50 [4]: 10; Ratio IC50 [5]: 10; Ratio IC50 [6]: 10; Ratio IC50 [7]: 10; Ratio IC50 [8]: 10; Ratio IC50 [9]: 10; IC50 [11]: 0.16 nM; Ratio IC50 [13]: 10; Ratio IC50 [15]: 10; Ratio IC50 [16]: 10; Ratio IC50 [18]: 10; Activity [37]: 41.2%; Ratio IC50 [24]: 10; Ratio IC50 [26]: 10; Ratio IC50 [29]: 10; Ratio IC50 [31]: 10; Ratio IC50 [35]: 10
CC[C@]1(NC(=O)N2CCC(c3ccccc3)CC2)C[C@H]2CN(CCc3c([nH]c4ccccc34)[C@@](C(=O)OC)(c3cc4c(cc3OC)N(C)[C@H]3[C@@](O)(C(=O)OC)[C@H](OC(C)=O)[C@]5(CC)C=CCN6CC[C@]43[C@@H]65)C2)C1	5.3 nM							3.1 nM												55 nM	
CC[C@]1(NC(=O)N2CCCCC2)C[C@H]2CN(CCc3c([nH]c4ccccc34)[C@@](C(=O)OC)(c3cc4c(cc3OC)N(C)[C@H]3[C@@](O)(C(=O)OC)[C@H](OC(C)=O)[C@]5(CC)C=CCN6CC[C@]43[C@@H]65)C2)C1	5.5 nM																				
